The results in this text go back to patent US20180296537A1, “METHODS AND COMPOSITIONS FOR DIAGNOSING, TREATING, AND MONITORING TREATMENT OF SHANK3 DEFICIENCY ASSOCIATED DISORDERS” (Novartis AG, priority 2015, published 2018).

The assay concerns CA1 pyramidal neurons. Nature of the assay: Dendritic spine density in hippocampal organotypic slice cultures. The format is cell-based, mouse. The procedure: Wilde type (C57B1/6) mice were housed in a temperature-controlled room and maintained on a 12 hr light/dark cycle. Food and water were available ad libitum and experiments were carried out in accordance with the local authorization guidelines for the care and use of laboratory animals. Slice cultures were established according to the procedure described by Stoppini and colleagues (Galimberti et al., 2006; Stoppini et al., 1991). […] For organotypic slice cultures, brains of P6-P9 transgenic mice were dissected in cold MEM (GIBCO) medium, and hippocampal coronal sections of 400 μm were obtained with a tissue chopper (McIlwain). Slices were selected, placed on Millicell (Millipore, PICM03050) and cultured in 6-well dishes at 35° C. and 5% CO2 in the presence of 1 ml of medium. The entire slice isolation procedure took about 30 min. The culture medium was exchanged every third day. Treatments were performed in fresh culture medium for the indicated time periods.
Brain slices were transfected with plasmids encoding shCont, and shShank3 using helios gene gun system (Bio-Rad Laboratories, #165-2431) as previously described (Proenca et al., 2013). Subsequently, slices were fixed, stained, mounted, and analyzed following the protocols described below in the immunohistochemistry and microscopy paragraphs.
Slices were fixed for 10 minutes in 4% PFA, washed in PBS and blocked for 4 hr at room temperature in 0.3% Triton X-100 20% Horse Serum/PBS (blocking solution). GFP primary antibody was incubated for 24 hr at 4° C. in the blocking solution. Afterwards, slices were washed in PBS, incubated for 2 hr in 0.3% Triton X-100/PBS with Alexa Fluor® 488 Donkey anti-chicken secondary antibody (Life technologies). Finally, slices were washed in PBS, incubated 10 minutes with DAPI (Life technologies) and mounted on glass slides using ProLong mountant (Life technologies).
High resolution images were acquired on an upright Zeiss LSM700 confocal microscope, using a Plan-Neofluar 100×/1.3 oil immersion objective. For the analysis of dendritic spine density, confocal 3D stacks were acquired in CA1 region for each experiment. To quantify spine density, a stretch of approximately 30 μm was selected on secondary dendrites originating at the branch point from the primary dendrite. Only secondary dendrites were considered to reduce variability. Dendritic length was measured using the ImageJ plugin, Simple Neurite tracer, and spine density manually counted using the Cell Counter plugin.
The above findings implicate CLK2 overexpression as a specific anomaly that is causative for attenuated Akt activity in neurons deficient for Shank3. Consequently, inhibiting CLK2 activity or directly activating Akt would restore neuronal impairments associated with Shank3 loss of function. First, a small-molecule Akt-activator, SC79, was tested for its ability to restore Akt phosphorylation (FIG. 5A). SC79 binds directly to Akt to facilitate an ‘open’ conformation of the protein that is accessible to upstream activating kinases (eg. PDK1). This obviates the need for PtdIns(3,4,5)P3 (PIP3) production and recruitment of Akt to the plasma membrane (Rodgers, Cell Metab. 11, 23-34, 2010). […] Decreased principal neuron dendritic spine density has frequently been observed in Shank3 loss of function models (Durand et al., 2007, Nature Genetics 39: 25-27; Peca et al., 2011, Nature 472: 437-442; Verpelli et al., 2011, The Journal of Biological Chemistry 286: 34839-34850). Knock-down of Shank3 in hippocampal organotypic slice cultures, via biolistic transfection of shRNA vectors, faithfully recapitulated this phenotype in CA1 pyramidal neurons, whereby a two-fold reduction in apical dendrite spine density resulted (FIG. 6A). […]

Regarding `CCOC(=O)C1=C(N)Oc2ccc(Cl)cc2C1C(C#N)C(=O)OCC` (stereo not shown) [SC79], the spine density entry is reported as “rescued the spine density impairment in Shank3 knock down neurons” (Shank3 knock down neurons, 4 μg/ml SC79, 24 hr, DIV 14) and “without significantly affecting controls” (control neurons, 4 μg/ml SC79, 24 hr, DIV 14).
`CCN1/C(=C/C(C)=O)Sc2ccc(OC)cc21` [TG003, (Z)-1-(3-ethyl-5-methoxy-2,3-dihydrobenzothiazol-2-ylidene)propan-2-one]: for the setting “Shank3 knock down neurons, TG003 24 hours”, the spine density result is “increased spine density in Shank3 knock down neurons to control levels”. Besides, where the note is “knockdown of Shank3 with additional shRNAs, 24 h pre-treatment with TG003, fixed DIV 14”, the dendritic spine density result is reported as “corrected”.
